# Laboratory results published in ChEMBL document CHEMBL1148510, “Synthesis and photocytotoxic activity of new chlorin-polyamine conjugates” (Bioorg Med Chem Lett, 2006).
# The source made the active and inactive calls. The calls are words filed in the database; no cut-off is given here.
# Experiments:
# [1] = Partition coefficient, Log P of the compound; type: physicochemical; conditions: octanol/water
# [2] = test system: K562; experiment: Cytotoxicity against human K562 cells at 2 uM after 24 hrs in dark; type: functional, cell-based
# [3] = test system: K562; experiment: Photocytotoxicity against human K562 cells at 2 uM; type: functional, cell-based
Compound,logP [1],Activity [2],Activity [3]
CN(CCCCNCCCCNC(=O)c1ccc(-c2c3nc(c(-c4ccc(C(=O)NCCCCNCCCCN(C)CCCNCCCN)cc4)c4ccc([nH]4)c(-c4ccc(C(=O)NCCCCNCCCN(C)CCCCNCCCN)cc4)c4ccc([nH]4)c(-c4ccc(C(=O)NCCCCNCCCN(C)CCCCNCCCN)cc4)c4nc2CC4)C=C3)cc1)CCCNCCCN,-1.98,,
C=Cc1c(C)c2cc3nc(c(CC(=O)NCCCCNCCCN(C)CCCCNCCCN)c4nc(cc5[nH]c(cc1[nH]2)c(C)c5CC)C(C)=C4C(=O)NCCCCNCCCN(C)CCCCNCCCN)[C@@H](CCC(=O)NCCNCCCN(C)CCCCNCCCN)[C@@H]3C,-0.83,Active,Active
C=Cc1c(C)c2cc3nc(c(CC(=O)NCCCCNCCCN(C)CCCCN)c4nc(cc5[nH]c(cc1[nH]2)c(C)c5CC)C(C)=C4C(=O)NCCCCNCCCN(C)CCCCN)[C@@H](CCC(=O)NCCNCCCN(C)CCCCN)[C@@H]3C,-0.45,Active,Active
CN(CCCN)CCCCNCCCCNC(=O)c1ccc(-c2c3nc(c(-c4ccc(C(=O)NCCCCNCCCCN(C)CCCN)cc4)c4ccc([nH]4)c(-c4ccc(C(=O)NCCCCNCCCN(C)CCCCN)cc4)c4ccc([nH]4)c(-c4ccc(C(=O)NCCCCNCCCN(C)CCCCN)cc4)c4nc2CC4)C=C3)cc1,-1.87,,
